Data from patent US12110305B2, “Prodrugs of phosphonamide nucleotide analogues and their pharmaceutical use” (priority 2020, dated 2024).

System: HIV-1 (IIIB)
Assay: Antiviral (HIV) assay in MT-4 cells
Assay type: cell-based
Conditions: Human immunodeficiency virus 1, MT4, 120 h; HIV-1 IIIB in MT-4 cells, 5 days incubation, Cell Titer Glo; average of at least two independent experiments
Experimental: Example 104: Antiviral (HIV) Assay in MT-4 Cells
Compounds were tested in a high-throughput 384-well assay format for their ability to inhibit the replication of HIV-1 (IIIB) in MT-4 cells. Compounds were serially diluted (1:3) in DMSO on 384-well polypropylene plates and further diluted 200-fold into complete RPMI media (10% FBS, 1% P/S) using the Biotek Micro Flow and Labcyte ECHO acoustic dispenser. Each plate contained up to 8 test compounds, with negative (no drug) and positive (5 μM AZT) controls. MT-4 cells were pre-treated with 10 μL of either RPMI (mock-infected) or a fresh 1:250 dilution of HIV-1 IIIB concentrated virus stock. Infected and uninfected MT-4 cells were further diluted in complete RPMI media and added to each plate using a Micro Flow dispenser. After 5 days incubation in a humidified and temperature-controlled incubator (37° C.), Cell Titer Glo (Promega) was added to the assay plates and chemiluminescence read using an Envision plate-reader. EC50 values were defined as the compound concentration that causes a 50% decrease in luminescence signal and were calculated using a sigmoidal dose-response model to generate curve fits and are shown in Table 1.

Compound	EC50 [nM]
CCCCCCOC(=O)C(C)(C)NP(=O)(CO[C@H](C)Cn1cnc2c(N)ncnc21)NC(C)(C)C(=O)OCCCCCC [Example 1, Dihexyl 2,2′-(((((1-(6-amino-9H-purin-9-yl)propan-2-yl)oxy)methyl)phosphoryl)bis(azanediyl))(R)-bis(2-methylpropanoate)]	5
CCC(CC)COC(=O)C(C)(C)NP(=O)(CO[C@H](C)Cn1cnc2c(N)ncnc21)NC(C)(C)C(=O)OCC(CC)CC [Example 2, Bis(2-ethylbutyl) 2,2′-(((((1-(6-amino-9H-purin-9-yl)propan-2-yl)oxy)methyl)phosphoryl)bis(azanediyl))(R)-bis(2-methylpropanoate)]	4
C[C@H](Cn1cnc2c(N)ncnc21)OCP(=O)(NC(C)(C)C(=O)OCc1ccccc1)NC(C)(C)C(=O)OCc1ccccc1 [Example 3, Dibenzyl 2,2′-(((((1-(6-amino-9H-purin-9-yl)propan-2-yl)oxy)methyl)phosphoryl)bis(azanediyl))(R)-bis(2-methylpropanoate)]	10
CCCCCOC(=O)C(C)(C)NP(=O)(CO[C@H](C)Cn1cnc2c(N)ncnc21)NC(C)(C)C(=O)OCCCCC [Example 4, Dipentyl 2,2′-(((((1-(6-amino-9H-purin-9-yl)propan-2-yl)oxy)methyl)phosphoryl)bis(azanediyl))(R)-bis(2-methylpropanoate)]	6
C[C@H](Cn1cnc2c(N)ncnc21)OCP(=O)(NC(C)(C)C(=O)OCC(C)(C)C)NC(C)(C)C(=O)OCC(C)(C)C [Example 5]	5
CC(C)CCOC(=O)C(C)(C)NP(=O)(CO[C@H](C)Cn1cnc2c(N)ncnc21)NC(C)(C)C(=O)OCCC(C)C [Example 6, Diisopentyl 2,2′-(((((1-(6-amino-9H-purin-9-yl)propan-2-yl)oxy)methyl)phosphoryl)bis(azanediyl))(R)-bis(2-methylpropanoate)]	2

Second part, the compound after the results:

EC50 [nM]	Compound
9	CCC(CC)CCOC(=O)C(C)(C)NP(=O)(CO[C@H](C)Cn1cnc2c(N)ncnc21)NC(C)(C)C(=O)OCCC(CC)CC [Example 7, Bis(3-ethylpentyl) 2,2′-(((((1-(6-amino-9H-purin-9-yl)propan-2-yl)oxy)methyl)phosphoryl)bis(azanediyl))(R)-bis(2-methylpropanoate)]
5	C[C@H](Cn1cnc2c(N)ncnc21)OCP(=O)(NC(C)(C)C(=O)OCCC(C)(C)C)NC(C)(C)C(=O)OCCC(C)(C)C [Example 8, Bis(3,3-dimethylbutyl) 2,2′-(((((1-(6-amino-9H-purin-9-yl)propan-2-yl)oxy)methyl)phosphoryl)bis(azanediyl))(R)-bis(2-methylpropanoate)]
169	C[C@H](Cn1cnc2c(N)ncnc21)OCP(=O)(NC(C)(C)C(=O)OC(C)(C)C)NC(C)(C)C(=O)OC(C)(C)C [Example 9, Di-tert-butyl 2,2′-(((((1-(6-amino-9H-purin-9-yl)propan-2-yl)oxy)methyl)phosphoryl)bis(azanediyl))(R)-bis(2-methylpropanoate)]
37	CCCCCCOC(=O)[C@](C)(CC)NP(=O)(CO[C@H](C)Cn1cnc2c(N)ncnc21)N[C@@](C)(CC)C(=O)OCCCCCC [Example 10, Dihexyl 2,2′-((((((R)-1-(6-amino-9H-purin-9-yl)propan-2-yl)oxy)methyl)phosphoryl)bis(azanediyl))(2S,2'S)-bis(2-methylbutanoate)]
17	CCCCCCOC(=O)[C@](C)(Cc1ccccc1)NP(=O)(CO[C@H](C)Cn1cnc2c(N)ncnc21)N[C@@](C)(Cc1ccccc1)C(=O)OCCCCCC [Example 11, Dihexyl 2,2′-((((((R)-1-(6-amino-9H-purin-9-yl)propan-2-yl)oxy)methyl)phosphoryl)bis(azanediyl))(2S,2'S)-bis(2-methyl-3-phenylpropanoate)]
7	C[C@H](Cn1cnc2c(N)ncnc21)OCP(=O)(NC(C)(C)C(=O)OCCC1CCCCC1)NC(C)(C)C(=O)OCCC1CCCCC1 [Example 14, Bis(2-cyclohexylethyl) 2,2′-(((((1-(6-amino-9H-purin-9-yl)propan-2-yl)oxy)methyl)phosphoryl)bis(azanediyl))(R)-bis(2-methylpropanoate)]
